From EP4385491A1, “PH-STABLE BIOTECHNOLOGY COMPOSITION BASED ON LACCASE FOR TARGETED DEGRADATION OF COLOURED MELANOIDINES AND/OR PHENOLIC ORGANIC COMPOUNDS ON DENSE SURFACES” (SkyLab AG, priority 2022, dated 2024)

Settings: pH 3.0, coffee solution, 60 min

Structure (SMILES): OO [0.01% hydrogen peroxide solution, hydrogen peroxide]
- Degradation of melanoidins and phenolic organic compounds, % (40 ± 1°C, 325 nm, laccase 0.25 wt.% raw material (0.0875 wt.% active), hydrogen peroxide 0.01%): -6.0%
- activity against melanoidins and phenolic organic compounds (in words): low degradation
